Reference: US20250135071A1, “USE OF POLYPEPTIDE IN PROMOTION OF CARTILAGE REGENERATION OR REPAIR” (HANGZHOU HUIBO SCIENCE AND TECHNOLOGY CO., LTD, priority 2021, published 2025)

Tests used:
[1] = system: defect region of a critical size in rabbit condyle; test: Effect of Hst1 dose in Gel-MA on cartilage repair (H&E histology); type: in vivo; conditions: 2 weeks
Excerpt: In order to determine the optimal concentration of Hst1 for promoting osteochondral repair, Gel-M and 3 different doses of Hst1 at (A, A1) 50, (B, B1) 500, and (C, C1) 1,000 (μg)/sample were implanted in the defect region of a critical size in rabbit condyle, and the tissues were taken out at 2 weeks after operation, subjected to histological treatment and sectioned to explore the cartilage repair effects of the 3 different concentrations of Hst1.
The 3 different concentrations of Hst1 were set as follows: group A: 50 μg of Hst1+21.1 μl of a Gel-MA prepolymer solution; group B: 500 μg of Hst1+21.1 μl of a Gel-MA prepolymer solution; and group C: 1,000 μg of Hst1+21.1 μl of a Gel-MA prepolymer solution (the model volume of condylar defect was 21.1 μl/sample).
The optical photomicrographs of H&E stained tissue sections of rabbit condyle for comparison were shown in FIG. 8, wherein the dotted square area was the original defect region (3 mm*3 mm), the A-C scale was 500 μm; and the A1-C1 scale=50 μm. […] Therefore, 500 μg of Hst1/sample (500 μg of Hst1+21.1 μl of Gel-MA) was selected as the preferred concentration.

type II collagen = test: Immunohistochemistry of type II collagen in repaired tissue; type: in vivo, New Zealand white rabbits
Method: (§1) Histological examination steps were as follows: in an environment of 4° C., the specimens used for histological analysis were fixed in 10% neutral formalin (Sig-ma-Aldrich, USA) for 24 hours, and decalcified with a 10% ethylenediaminetetraacetic acid (EDTA) buffer solution (Sigma-Aldrich, USA) for 28 days. The sample was embedded in paraffin wax (Sigma-Aldrich, USA), cut into 4 μm thick sagittal sections, and subjected to staining with hemotoxylin and cosin, Masson trichrome and Alcian Blue (Sigma Aldrich, USA). The sections were detected immunohistochemically for the contents of the type II collagen and Aggrecan. […] These sections were scored blindly by 3 experienced pathologists with an improved O'Driscoll scoring system (MODS).
(§2) The steps of histological morphology analysis were as follows: in all the sample sections, the original defect region was a 3*3 mm square. […] The percentages of areas of the new subchondral bone, the cartilage, the collagen fiber and the glycosaminoglycan (GAG) in the total area of the defect region was detected with image analysis software (image pro plus 6.0). Their respective contents were expressed as integrated optical density (IOD) of the type II collagen and Aggrecan measured by Image pro plus 6.0. […]

Aggrecan = test: Immunohistochemistry of Aggrecan in repaired tissue; type: in vivo, New Zealand white rabbits
Method: as §1, §2

[2] = system: rabbit temporomandibular joint condylar osteochondral defect (3 mm*3 mm); test: Histological evaluation (H&E, histomorphometry, MODS score) of repaired osteochondral defect; type: in vivo, New Zealand white rabbits; conditions: group 3
Method: In this example, 3 groups of rabbits provided in Example 2 were used, and at 1, 2 and 4 weeks after operation, 6 animals in each group were randomly selected for euthanasia. The right temporomandibular joint and surrounding tissues thereof were taken out, and the gross specimens were analyzed for tissue morphology and statistically analyzed.
Histological examination steps were as follows: in an environment of 4° C., the specimens used for histological analysis were fixed in 10% neutral formalin (Sig-ma-Aldrich, USA) for 24 hours, and decalcified with a 10% ethylenediaminetetraacetic acid (EDTA) buffer solution (Sigma-Aldrich, USA) for 28 days. The sample was embedded in paraffin wax (Sigma-Aldrich, USA), cut into 4 μm thick sagittal sections, and subjected to staining with hemotoxylin and cosin, Masson trichrome and Alcian Blue (Sigma Aldrich, USA). The sections were detected immunohistochemically for the contents of the type II collagen and Aggrecan. All the sections were observed and photographed by utilizing an optical microscope (CX51; Olympus) and a digital charge coupled device camera (TrueChrome Metrics; Tucsen Photonics). These sections were scored blindly by 3 experienced pathologists with an improved O'Driscoll scoring system (MODS).
The steps of histological morphology analysis were as follows: in all the sample sections, the original defect region was a 3*3 mm square. The top of the square was flush with the cartilage surfaces on both sides. The percentages of areas of the new subchondral bone, the cartilage, the collagen fiber and the glycosaminoglycan (GAG) in the total area of the defect region was detected with image analysis software (image pro plus 6.0). Their respective contents were expressed as integrated optical density (IOD) of the type II collagen and Aggrecan measured by Image pro plus 6.0.
At 4 weeks after operation, the tissues were retrieved for histological treatment and sectioning. According to the implants in the defect region, they were divided into a group 1 as the control group (A in FIG. 3, A1-A2), a group 2 as the Gel-MA group (B in FIG. 3, B1-B2) and a group 3 as the Hst1/Gel-MA group (C in FIG. 3, C1-C2). The dotted square area in FIG. 3 was the original defect region (3 mm*3 mm). A-C scale=500 μm. […]
The quantitative analysis of areas of new cartilage and subchondral bones and the MODS score results of repairing osteochondral defects at 1, 2 and 4 weeks after operation were shown in FIG. 4. In FIG. 4, A was the quantitative analysis of the area of the new cartilage, B was the quantitative analysis of the area of the subchondral bone, and C, D and E were the MODS score results of repairing osteochondral defects at 1, 2 and 4 weeks after operation, respectively. […]

[3] = system: rabbit temporomandibular joint condylar osteochondral defect (3 mm*3 mm); test: Macroscopic (ICRS) evaluation of repair of rabbit condylar osteochondral defect; type: in vivo, New Zealand white rabbits; conditions: overall conclusion, 1 to 4 weeks
Excerpt: 54 adult male New Zealand white rabbits (Zhejiang Chinese Medical University, IACUC-20180625-04) were randomized into 3 groups, with 18 rabbits in each group. The 54 rabbits were operated at right condyle, while the left condyle remained intact.
They were divided into 3 groups, of which group 1 was a control group without any treatment in the defect region; group 2 was a Gel-MA group implanted with Gel-MA hydrogel in the defect region; and group 3 was a Hst1/Gel-MA group implanted with HST1 functionalized Gel-MA in the defect region (provided in Example 1). […]
At 1, 2 and 4 weeks after operation, 6 animals in each group were randomly selected for euthanasia. The right temporomandibular joint and surrounding tissues thereof were taken out, and the gross specimens were evaluated by macroscopic scoring, and statistically analyzed.
The macroscopic scoring evaluation of the gross specimens adopted a macroscopic scoring system of the International Cartilage Repair Society (ICRS), and the gross appearance of the defect site was photographed and subjected to blind evaluation by 3 independent graders. The scoring system evaluated the cartilage repair in the defect region from four aspects: the degree of repair, the integration of a boundary area, a macroscopic appearance and the overall repair evaluation. […]

glycosaminoglycan (GAG) = test: Alcian Blue staining, glycosaminoglycan (GAG) area in defect region; type: in vivo, New Zealand white rabbits; conditions: 2 and 4 weeks; group 3 versus groups 2 and 1; P<0.05
Method: as §1, §2

collagen fibers = test: Masson trichrome staining, collagen fiber area in defect region; type: in vivo, New Zealand white rabbits; conditions: 2 and 4 weeks; group 3 versus groups 2 and 1; P<0.05
Method: as §1, §2

[4] = 4 weeks after operation, group 3
[5] = 4 weeks, group 3, quantitative analysis (IOD)

Substance: Histatin-1 polypeptide (DSHEKRHHGYRRKFHEKHHSHREFPFYGDYGSNYLYDN; linear Hst1)
- histological repair of defect region ([1]; group A: 50 μg of Hst1+21.1 μl Gel-MA prepolymer solution): no new tissue was generated, and only a small amount of cell infiltration was detected
- histological repair of defect region ([1]; group B: 500 μg of Hst1+21.1 μl Gel-MA prepolymer solution): several new cartilage islands could be obviously observed
- histological repair of defect region ([1]; group C: 1,000 μg of Hst1+21.1 μl Gel-MA prepolymer solution): a large number of new subchondral bones were generated, but almost no new cartilage tissue was detected
- expression of the type II collagen in the new cartilage tissue (type II collagen; [4]): close to those in the normal cartilage tissue
- expression of the type II collagen compared with the groups 2 and 1 (type II collagen; [5]): more significant
- expression of Aggrecan in the new cartilage tissue (Aggrecan; [4]): close to those in the normal cartilage tissue
- expression of Aggrecan compared with the groups 2 and 1 (Aggrecan; [5]): more significant
- histological observation of defect region ([2]; 1 week after operation): a new tissue was observed in the pores of the undegraded scaffold
- histological observation of defect region ([2]; 2 weeks after operation): new cartilage and bone tissues gradually grew, infiltrated and replaced the scaffold
- histological observation of defect region ([2]; 4 weeks after operation): the new cartilage proliferated and migrated to the center site of the defect
- new blood vessels at junction between subchondral bone and functionalized hydrogel ([2]; 4 weeks after operation): formation of new blood vessels could be detected
- effect on promoting the repair of cartilage injury (macroscopic) [3]: very significant effect on promoting the repair of cartilage injury
- area percentages of glycosaminoglycan (GAG) in the new cartilage and the subchondral bone in the total area of the defect region (glycosaminoglycan (GAG)): significantly higher than those in the groups 2 and 1
- area percentages of the collagen fibers in the new cartilage and the subchondral bone in the total area of the defect region (collagen fibers): significantly higher than those in the groups 2 and 1
